Assay results taken from patent publication US4755514A, “Phenylpyrazine derivatives and thrombolytic agent” (Suntory Limited, priority 1985, dated 1988).

Assays:
[1] = test system: pulmonary embolism induced by adenosine-5'-diphosphate sodium salt (ADP 2Na); test: prevention of pulmonary embolic death in mice (ADP 2Na injection); type: in vivo, Male ddY mice; conditions: 300 mg/kg peroral; for Number of animals dying within 3 minutes after injection/Number of animals in test, ADP 2Na: 3 h before 30 mg/kg ADP 2Na i.v., control: 6/6 died; for thrombolytic effects compared with Ticlopidine: from Table 1 (ADP 2Na and collagen), mice
[2] = test system: pulmonary embolism induced by collagen; test: prevention of pulmonary embolic death in mice (collagen injection); type: in vivo, Male ddY mice; conditions: 300 mg/kg peroral, 3 h before collagen i.v.; control: 6/6 died
Method: The following tests were conducted to evaluate the effect of the claimed compounds in the prevention of pulmonary embolic death in mice.
Each of the compounds being tested was suspended in 0.5% carboxymethyl cellulose and administered perorally at a dosage of 300 mg/kg (0.1 ml/10 g body weight).
Male ddY mice weighing 18-20 g were subjected to the test after being starved overnight.
Three hours after oral administration of a selected test compound to the mice, 30 mg/kg of adenosine-5'-diphosphate sodium salt (Sigma Chemical Co., Grade IX) or collagen was injected through their tail veins. The number of mice which died of pulmonary embolism within 3 minutes after the intravenous injections was counted.
The adenosine-5'-diphosphate sodium salt (ADP 2Na) was in the form of a solution in physiological saline at a concentration of 300 mg/10 ml. The collagen was administered in the form of a solution which was prepared by the following procedure: 25 mg of collagen was uniformly sonicated in a solution containing 25 mmol of tris-HCl and 130 mmol of sodium chloride (pH: 7.3), and the resultant dispersion was incubated at 37° C. for 45 minutes to form a polymer (after incubation, the collagen solution was kept in ice-water until it was used).
As a control, 0.5% carboxymethyl cellulose (10 ml/kg) was administered through tail veins.

mice = test system: mice; set-up: species or system ddY male mice; conditions: mouse, in vivo
Method: The following acute toxicity test was conducted on mice:
Animal: Five-week old ddY male mice (wt: 21-27 g) in groups of 6.
Method: The mice were starved overnight and the compound prepared in Example 6 was administered perorally in an amount of 0.1 ml/10 g body weight after it was suspended in 0.5% carboxymethyl cellulose sodium salt (CMC-Na). As a control, 0.5% CMC-Na solution was administered.

Row | Structure (SMILES) | Number of animals dying within 3 minutes after injection/Number of animals in test, ADP 2Na [1] | Number of animals dying within 3 minutes after injection/Number of animals in test, Collagen [2] | animals that died at the dosage levels used (mice) | changes in the general condition of the mice (mice) | thrombolytic effects compared with Ticlopidine [1]
1 | Clc1ccccc1-c1cnccn1 [Example 7, 2-(2-chlorophenyl)pyrazine] | 5/10 | 6/9 |  |  | 
2 | Cc1ccc(-c2cnccn2)cc1 [Example 2, 2-(4-methylphenyl)pyrazine] | 3/7 | 7/8 |  |  | 
3 | Clc1ccc(-c2cnccn2)cc1Cl [Example 6, 2-(3,4-dichlorophenyl)pyrazine] | 3/10 | 4/10 | none of the animals treated with the compound of Example 6 died | No apparent changes were observed | equal to or greater than the levels achieved by a known thrombolytic agent, Ticlopidine
4 | Clc1ccc(-c2cnccn2)cc1 [Example 1, 2-(4-chlorophenyl)pyrazine] | 4/9 | 2/8 |  |  | equal to or greater than the levels achieved by a known thrombolytic agent, Ticlopidine
5 | Oc1ccc(-c2cnccn2)cc1 [Example 8, 2-(4-hydroxyphenyl)pyrazine] | 4/7 | 7/8 |  |  | 
6 | Clc1cccc(-c2cnccn2)c1 [Example 4, 2-(3-chlorophenyl)pyrazine] | 5/10 | 6/10 |  |  | 
7 | Clc1ccc(-c2cnccn2)c(Cl)c1 [Example 5, 2-(2,4-dichlorophenyl)pyrazine] | 6/10 | 4/10 |  |  | 
8 | COc1ccc(-c2cnccn2)cc1 [Example 3, 2-(4-methoxyphenyl)pyrazine] | 4/7 | 6/8 |  |  | 
